One test addresses T1, HIV-1 protease (Q7S) (Human immunodeficiency virus type 1 group M subtype B, UniProt P04585, Q495S).
T1 construct: made in house
As to the kind of experiment: HIV-1 Protease RET Assay. It counts as biochemical. An outline of the steps:
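Ki values came from a RET assay on refolded Q7S protease (2 nM active dimer) cleaving RE(EDANS)SQNYPIVQK(DABCYL)R at 5 μM, read at ex 340/em 490 nm. Reactions ran 12 min at 37 C in 0.1M sodium acetate pH 4.8, 1M NaCl, 5 mM DTT, 10% DMSO; curves were fit with the Morrison tight-binding equation.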

Another test has as its system HIV-1. The test is described as follows: Cytopathic Effect (CPE) Inhibition Assay (XTT dye reduction). The test is classed as cell-based. As to the method:
T-cell lines, CEM-SS, and MT-2, and viruses HIV-1 RF and HIV-1 NL4–3 (pNL4–3) were obtained from the National Institutes of Health (AIDS Research and Reference Reagent Program, Bethesda, Md.).
The ability of compounds to protect cells against HIV infection was measured by the […] dye reduction method, essentially as described (See Pauwels, R. Balzarini, J. Baba, M. Snoeck, R. Schols, D. Herdewijn, P. Desmyter, J. and De Clercq, E. 1988, “Rapid and automated tetrazolium-based colorimetric assay for the detection of anti-HIV compounds,”. J Virol Methods., 20: 309–321 and Weislow, O. S. Kiser, R. Fine, D. L. Bader, J. Shoemaker, R. H. and Boyd, M. R. 1989. “New soluble-formazan assay for HIV-1 cytopathic effects: application to high-flux screening of synthetic and natural products for AIDS-antiviral activity”. J. Natl. Cancer Inst. 81:577–586). Subject cells were infected with test virus at an moi of 0.025 to 0.819 or mock infected with medium only and added at 2×10^4 cells per well into 96 well plates containing half-log dilutions of test compounds. Six days later, 50 μl of XTT (1 mg/ml XTT tetrazolium, […] phenazine methosulfate) was added to the wells and the plate was reincubated for four hours. Viability, as determined by the amount of XTT formazan produced, was quantified spectrophotometrically by absorbance at 450 nm. Data from CPE assays were expressed as the percent of formazan produced in compound-treated cells compared to formazan produced in wells of uninfected, compound-free cells. The fifty percent effective concentration (EC50) was calculated as the concentration of compound that effected an increase in the percentage of formazan production in infected, compound-treated cells to 50% of that produced by uninfected, compound-free cells. The 50% cytotoxicity concentration (CC50) was calculated as the concentration of compound that decreased the percentage of formazan produced in uninfected, compound-treated cells to 50% of that produced in uninfected, compound-free cells. The therapeutic index was calculated by dividing the cytotoxicity (CC50) by the antiviral activity (EC50).

Setting [1] is: Ave. Ki (nM), RET assay, Q7S enzyme, pH 4.8, 37 C.
Setting [2] is: Human immunodeficiency virus 1, 144 h, read-out: Ave CPE EC50 (mM).
[3] abbreviates: Ki, table of drawn compounds, unit inferred.

Like-named read-outs stand apart in the source and are kept apart here. Some results are limits rather than exact numbers.

Results on 23 molecules are retold here after patent US7169932B2 (priority 2001, dated 2007).

A word on the Ki: it is a dissociation constant, usually derived from enzyme kinetics or from competition with a known ligand. A low value points to higher affinity. Broadly, the EC50 is the concentration at which the effect is half-maximal. In the case of `Cn1cccc1C(=O)N[C@@H](Cc1ccccc1)[C@H](O)C(=O)N1CSC(C)(C)[C@H]1C(=O)NCc1ccccc1Cl` [Example B22, 3-{2-Hydroxy-3-[(1-methyl-1H-pyrrole-2-carbonyl)-amino]-4-phenyl-butyryl}-5,5-dimethyl-thiazolidine-4-carboxylic acid 2-chloro-benzylamide], the Ki on HIV-1 protease (Q7S) (setting [1]) came out at 1.8 nM. The EC50 in the test on HIV-1 (setting [2]) was 1610 nM.

On to `Cc1c(O)cccc1C(=O)N[C@@H](Cc1ccccc1)[C@H](O)C(=O)N1CSC(C)(C)[C@H]1C(=O)NCC(C)(C)C`, for which the inhibition constant (Ki) on HIV-1 protease (Q7S) (setting [3]) is ≤ 0.1 nM. Besides, the 50% effective concentration (EC50) with HIV-1 (Human immunodeficiency virus 1) amounted to 53 nM.

Regarding `Cc1c(Cl)cccc1CNC(=O)[C@H]1N(C(=O)[C@@H](O)[C@H](Cc2ccccc2)NC(=O)c2cccc(O)c2C)CSC1(C)C`, on HIV-1 protease (Q7S) (setting [3]), the inhibition constant (Ki) came out at 0.2 nM. In the test with HIV-1 (Human immunodeficiency virus 1), this molecule yielded a concentration giving a half-maximal response (EC50) of 113 nM.

On to `C=C(C)CNC(=O)[C@H]1N(C(=O)[C@@H](O)[C@H](Cc2ccccc2)NC(=O)c2cccc(O)c2C)CSC1(C)C` [Example A28, (R)-3-((2S,3S)-2-Hydroxy-3-{[1-(3-hydroxy-2-methyl-phenyl)-methanoyl]-amino}-4-phenyl-butanoyl)-5,5-dimethyl-thiazolidine-4-carboxylic acid (2-methyl-allyl)-amide], for which the Ki at HIV-1 protease (Q7S) (setting [1]) is < 0.1 nM. Moreover, in the test with HIV-1 (setting [2]), the EC50 worked out at 41 nM.

`Cc1ccccc1CNC(=O)[C@H]1N(C(=O)[C@@H](O)[C@H](Cc2ccccc2)NC(=O)c2ccc(F)cc2C)CSC1(C)C` [Example B37, (R)-3-((2S,3S)-3-{[1-(4-Fluoro-2-methyl-phenyl)-methanoyl]-amino}-2-hydroxy-4-phenyl-butanoyl)-5,5-dimethyl-thiazolidine-4-carboxylic acid 2-methyl-benzylamide] registered an inhibition constant (Ki) at HIV-1 protease (Q7S) (setting [1]) of 0.11 nM. Moreover, the concentration giving a half-maximal response (EC50) in the test on HIV-1 (setting [2]) stood at 736 nM.

Molecule `COCCNC(=O)[C@H]1N(C(=O)[C@@H](O)[C@H](Cc2ccccc2)NC(=O)c2cccc(O)c2C)CSC1(C)C` showed an inhibition constant (Ki) at HIV-1 protease (Q7S) (setting [3]) of 0.24 nM. For the same molecule, the half-maximal effective concentration (EC50) in the test on HIV-1 (Human immunodeficiency virus 1) is 158 nM.

On to `Cc1c(O)cccc1C(=O)N[C@@H](Cc1ccccc1)[C@H](O)C(=O)N1CSC(C)(C)[C@H]1C(=O)NCc1cc(F)ccc1C(F)(F)F` [Example A5, 3-(2-Hydroxy-3-{[1-(3-hydroxy-2-methyl-phenyl)-methyanoyl]amino}-4-phenyl-butanoyl)-5,5-dimethyl-thiazolidine-4-carboxlic acid fluoro trifluoromethyl-benzylamide], for which, on HIV-1 protease (Q7S) (setting [1]), the inhibition constant Ki worked out at 2 nM. In addition, the 50% effective concentration (EC50) in the test on HIV-1 (setting [2]) is 433 nM.

`C#CCN(C)C(=O)[C@H]1N(C(=O)[C@@H](O)[C@H](Cc2ccccc2)NC(=O)c2cccc(O)c2C)CSC1(C)C` [Example A27, (R)-3-((2S,3S)-2-Hydroxy-3-{[1-(3-hydroxy-2-methyl-phenyl)-methanoyl]-amino}-4-phenyl-butanoyl)-5,5-dimethyl-thiazolidine-4-carboxylic acid methyl-prop-2-ynyl-amide]: affinity at HIV-1 protease (Q7S) (setting [1]) was put at a Ki of 0.62 nM. The concentration giving a half-maximal response (EC50) with HIV-1 (setting [2]) worked out at 72 nM.

Regarding `C=CCNC(=O)[C@H]1N(C(=O)[C@@H](O)[C@H](Cc2ccccc2)NC(=O)c2cccc(F)c2C)CSC1(C)C` [Example B33, (R)-3-((2S,3S)-3-{[1-(3-Fluoro-2-methyl-phenyl)-methanoyl]-amino}-2-hydroxy-4-phenyl-butanoyl)-5,5-dimethyl-thiazolidine-4-carboxylic acid allylamide], the affinity at HIV-1 protease (Q7S) (setting [1]), expressed as Ki, was 1.2 nM. The EC50 in the test on HIV-1 (setting [2]) turned out to be 1290 nM.

Consider `CCCNC(=O)[C@H]1N(C(=O)[C@@H](O)[C@H](Cc2ccccc2)NC(=O)c2cccc(F)c2C)CSC1(C)C` [Example B31, (R)-3-((2S,3S)-3-{[1-(3-Fluoro-2-methyl-phenyl)-methanoyl]-amino}-2-hydroxy-4-phenyl-butanoyl)-5,5-dimethyl-thiazolidine-4-carboxylic acid propylamide], for which the Ki at HIV-1 protease (Q7S) (setting [1]) was 1.5 nM. For the same molecule, the EC50 with HIV-1 (setting [2]) was found to be 1320 nM.

With `Cc1c(O)cccc1C(=O)N[C@@H](Cc1ccccc1)[C@H](O)C(=O)N1CSC(C)(C)[C@H]1C(=O)NC(C)(C)C#N` [Example A41, (R)-3-((2S,3S)-2-Hydroxy-3-{[1-(3-hydroxy-2-methyl-phenyl)-methanoyl]-amino}-4-phenyl-butanoyl)-5,5-dimethyl-thiazolidine-4-carboxylic acid (1-cyano-1,1-dimethyl-methyl)-amide], the inhibitory constant (Ki) on HIV-1 protease (Q7S) (setting [1]) was 1.6 nM. Further, in the test with HIV-1 (setting [2]), the EC50 turned out to be 527 nM.

At HIV-1 protease (Q7S) (setting [3]), `Cc1c(O)cccc1C(=O)N[C@@H](Cc1ccccc1)[C@H](O)C(=O)N1CSC(C)(C)[C@H]1C(=O)NCc1cccc(OCC(C)C)c1` came in with a Ki of 1.1 nM. The same molecule came in with a half-maximal effective concentration (EC50) in the test on HIV-1 (Human immunodeficiency virus 1) of 1110 nM.

Consider `Cc1c(O)cccc1C(=O)N[C@@H](Cc1ccccc1)[C@H](O)C(=O)N1CSC(C)(C)[C@H]1C(=O)NCc1ccc(S(C)(=O)=O)cc1` [Example A13, 3-[2-Hydroxy-3-(3-hydroxy-2-methyl-benzoylamino)-4-phenyl-butyryl]-5,5-dimethyl-thiazolidine-4-carboxylic acid 4-methanesulfonyl-benzamide], for which the Ki at HIV-1 protease (Q7S) (setting [1]) turned out to be 44.1 nM. Also, in the test on HIV-1 (setting [2]), the half-maximal effective concentration (EC50) is > 1000 nM.

In turn, `Cc1c(O)cccc1C(=O)N[C@@H](Cc1ccccc1)[C@H](O)C(=O)N1CSC(C)(C)[C@H]1C(=O)NCc1ccc(OC(F)(F)F)cc1` [Example A47, (R)-3-((2S,3S)-2-Hydroxy-3-{[1-(3-hydroxy-2-methyl-phenyl)-methanoyl]-amino}-4-phenyl-butanoyl)-5,5-dimethyl-thiazolidine-4-carboxylic acid 4-trifluoromethoxy-benzylamide] returned a Ki on HIV-1 protease (Q7S) (setting [1]) of 2.3 nM. Further, in the test with HIV-1 (setting [2]), the EC50 was determined as 1810 nM.

On to `Cc1c(O)cccc1C(=O)N[C@@H](Cc1ccccc1)[C@H](O)C(=O)N1CSC(C)(C)[C@H]1C(=O)NCCC(C)(C)C`, for which the inhibition constant (Ki) on HIV-1 protease (Q7S) (setting [3]) came to 4.7 nM. This molecule also returned an EC50 in the test on HIV-1 (Human immunodeficiency virus 1) of 1060 nM.

At HIV-1 protease (Q7S) (setting [1]), `Cc1ccccc1CNC(=O)[C@H]1N(C(=O)[C@@H](O)[C@H](Cc2ccccc2)NC(=O)c2c(C)nn(C)c2Cl)CSC1(C)C` [Example B14, 3-{(S)-3-[(5-Chloro-1,3-dimethyl-1H-pyrazole-4-carbonyl)-amino]-2-hydroxy-4-phenyl-butyryl}-5,5-dimethyl-thiazolidine-4-carboxylic acid 2-methyl-benzylamide] yielded a Ki of 3.7 nM. Further, the EC50 in the test with HIV-1 (setting [2]) came out at 3050 nM.

For `Cc1ccccc1CNC(=O)[C@H]1N(C(=O)[C@@H](O)[C@H](Cc2ccccc2)NC(=O)c2c[nH]cn2)CSC1(C)C`, on HIV-1 protease (Q7S) (setting [3]), the inhibitory constant (Ki) stood at 55.8 nM. The half-maximal effective concentration (EC50) in the test on HIV-1 (Human immunodeficiency virus 1) was ≥ 10000 nM.

In turn, `Cc1c(O)cccc1C(=O)N[C@@H](Cc1ccccc1)[C@H](O)C(=O)N1CSC(C)(C)[C@H]1C(=O)NCC(=O)c1ccccc1` [Example A10, (R)-3-((2S,3S)-2-Hydroxy-3-{[1-(3-hydroxy-2-methyl-phenyl)-methanoyl]-amino}-4-phenyl-butanoyl)-5,5-dimethyl-thiazolidine-4-carboxylic acid (2-oxo-2-phenyl-ethyl)-amide] yielded a Ki at HIV-1 protease (Q7S) (setting [1]) of 51 nM. In addition, the EC50 in the test with HIV-1 (setting [2]) was > 1000 nM.

The molecule `Cc1ncc(C(=O)N[C@@H](Cc2ccccc2)[C@H](O)C(=O)N2CSC(C)(C)[C@H]2C(=O)NCc2ccccc2C)c(=O)[nH]1` gave an inhibitory constant (Ki) on HIV-1 protease (Q7S) (setting [3]) of 209 nM. In addition, the EC50 with HIV-1 (Human immunodeficiency virus 1) is ≥ 10000 nM.

`C=CCN(C)C(=O)[C@H]1N(C(=O)[C@@H](O)[C@H](Cc2ccccc2)NC(=O)c2ccno2)CSC1(C)C`: the affinity at HIV-1 protease (Q7S) (setting [3]) corresponds to a Ki of 24.6 nM. In addition, a half-maximal effect with HIV-1 (Human immunodeficiency virus 1) (EC50) was put at 4950 nM.

Take `Cc1c(O)cccc1C(=O)N[C@@H](Cc1ccccc1)[C@H](O)C(=O)N1CSC(C)(C)[C@H]1C(=O)NCc1ccc(F)cc1C(F)(F)F` [Example A12]: the inhibitory constant (Ki) at HIV-1 protease (Q7S) (setting [1]) is 1.7 nM. Moreover, in the test on HIV-1 (setting [2]), the EC50 is 1090 nM.

With `Cc1c(O)cccc1C(=O)N[C@@H](Cc1ccccc1)[C@H](O)C(=O)N1CSC(C)(C)[C@H]1C(=O)NCCCl` [Example A49, (R)-3-[(2S,3S)-2-Hydroxy-3-(3-hydroxy-2-methyl-benzoylamino)-4-phenyl-butyryl]-5,5-dimethyl-thiazolidine-4-carboxylic acid (2-chloro-ethyl)-amide], the inhibition constant Ki at HIV-1 protease (Q7S) (setting [1]) was 1.2 nM. The 50% effective concentration (EC50) with HIV-1 (setting [2]) was 130 nM.

Molecule `Cc1c(O)cccc1C(=O)N[C@@H](Cc1ccccc1)[C@H](O)C(=O)N1CSC(C)(C)[C@H]1C(=O)NCCC(F)(F)F` [Example A45, (R)-3-((2S,3S)-2-Hydroxy-3-{[1-(3-hydroxy-2-methyl-phenyl)-methanoyl]-amino}-4-phenyl-butanoyl)-5,5-dimethyl-thiazolidine-4-carboxylic acid (3,3,3-trifluoro-propyl)-amide] displayed a Ki at HIV-1 protease (Q7S) (setting [1]) of 0.51 nM. The EC50 in the test with HIV-1 (setting [2]) was determined as 165 nM.
